{"source": "patent US6368793B1", "about": "“Metabolic selection methods” (MicroGenomics, Inc., priority 1998, dated 2002)", "type_in_all_cases": "cell-based", "key": {"Klebsielia oxytoca": {"tested_on": "Klebsielia oxytoca", "experiment": "Compound utilization of environmental isolates (growth on minimal medium)", "settings": "Kelbsiella oxytoca isolate", "protocol": "Samples from diverse natural environments were collected to use for the isolation of microbes that can utilize ascorbic acid (AsA) as the sole carbon source. No bacterial species has previously been reported to grow on AsA minimal medium.\nEnvironmental samples were collected from freshwater lakes, lemon and orange orchards, residential backyard soils, human and animal solid wastes.\nOver 100 microbial isolates, capable of forming visible colonies within 20 hours of incubation at 30° C. on M9 minimal medium containing 0.5% AsA, were selected from these samples. These 100 isolates were then screened for their ability to grow on 2-Keto-L-Gulonate (2-KLG) minimal medium.\nThus, Kelbsiella oxytoca was retained as a candidate for genetic engineering of a host strain that can use AsA under controlled conditions for the selection of cloned microbial pathways from 2-KLG to AsA."}, "[1]": {"tested_on": "K. oxytoca strain MGK003 cosmid clones", "experiment": "Growth of selected cosmid library clones of MGK003 on 2-KLG with or without IPTG", "settings": "within 20 h at 37° C.", "protocol": "Prior to transfection of K. oxytoca strain MGK003 with the packaging mixture, the tester strain was transformed with plasmid pCB382 expressing the E. coli lamB gene that functions as λ receptor, which appears to be absent or non-functional in most Klebsiella strains (De Vries, G. E., et al., 1984. Proc. Natl. Acad. Sci. USA 81:6080-6084). The resulting MGK003 [λ^s] strain was transfected with the packaged products as follows:\n6. The remainder was centrifuged at 3000 g for 5 min and was resuspended in 1 mL of M9 minimal medium supplemented with 10 μM IPTG (IPTG concentration can be varied up to 100 μM), and aliquots (200 μL) were plated on M9 plates containing 0.5% 2-KLG and 50 μM IPTG. 7.\nPlates were incubated at 37° C. for 36 h for selecting candidate pathways that would convert 2-KLG to AsA. (Alternatively, selection can be done at 30° C.)\nAmong 500,000 clones to which a first selection round was applied, approximately 100 colonies of various sizes appeared on 2-KLG/IPTG plates. These were re-streaked on: (i) LB-kanamycin to verify the presence of the cosmid vector; (ii) 2-KLG/IPTG; and (iii) 2-KLG lacking IPTG to determine if growth of the positive clones on 2-KLG was dependent upon the expression of AsA catabolism. […]"}, "K. oxytoca strain MGK003": {"tested_on": "K. oxytoca strain MGK003", "experiment": "Growth of tester strain MGK003 on AsA minimal medium with or without IPTG", "description": "To engineer K. oxytoca as a host strain for the selection of biocatalysts which produce AsA, the promoter of the yiaK-S operon was replaced with a DNA fragment that contained the trp-lac hybrid promoter of transcription, the lacO operator, and the lacI^q repressor gene (Brosius, J. 1992. Meth. Enzymol. 216:469-483). This allows the yiaK-S operon, and therefore AsA catabolism, to be turned ON and OFF in a tightly controlled manner in the presence or absence of IPTG, a non-metabolizable inducer of the lac promoter. Practically, a 5-way ligation was set up among: (i) the pMAK705 integration vector which carries a chloramphenicol resistance marker and the thermosensitive origin of replication from plasmid […] (Hamilton, C. M., et al., 1989. J. Bacteriol. 171:4617-4622); (ii) a 0.8 kb fragment containing the 5′ region of the yiaJ gene and its promoter sequences; (iii) the spectinomycin resistance marker retrieved from Staphylococcus aureus Tn554 (Murphy, E. 1985. Mol. Gen. Genet. 200:33-39) to follow integration events; (iv) the lacI^q-lacO-trc promoter fragment retrieved from pSE380 (InVitrogen, Carlsbad, Calif.); and (v) a 1 kb fragment containing the 5′ end of yiaK, including its ribosome binding site for translation initiation while excluding the promoter sequences of the yiaK-S operon (FIG. 10). […]"}}, "data": [{"smiles": "O=C(O)C(=O)[C@@H](O)[C@H](O)[C@@H](O)CO", "note": "[2-KLG, 2-keto-L-gulonate]", "values": [{"measurement": "Utilization as sole source of carbon and energy / growth", "setting": "Klebsielia oxytoca", "result": "could not grow on 2-KLG"}, {"measurement": "Growth of two retained clones", "setting": "[1]; 2-KLG without IPTG", "result": "not on 2-KLG without IPTG"}, {"measurement": "Growth of two retained clones", "setting": "[1]; 2-KLG/IPTG", "result": "grew"}]}, {"smiles": "O=C1O[C@H]([C@@H](O)CO)C(O)=C1O", "note": "[AsA, ascorbic acid]", "values": [{"measurement": "Utilization as sole source of carbon and energy / growth", "setting": "Klebsielia oxytoca", "result": "could utilize AsA as its sole source of carbon and energy"}, {"measurement": "Growth on M9 minimal medium", "setting": "K. oxytoca strain MGK003; MGK003, AsA 0.25% and IPTG 10 to 100 μM", "result": "able to grow"}, {"measurement": "Growth on M9 minimal medium", "setting": "K. oxytoca strain MGK003; MGK003, AsA 0.25%, lacking IPTG", "result": "no growth"}]}]}
